Test results as given in the supplement of paper PMC13380429.

Key:
Settings in all cases: 72 h
Caco-2 [1] = assay: cell viability relative to DMSO; higher = less toxic
Calu-3 [2] = assay: as above
HepG2 [3] = assay: as above
U2OS [4] = assay: as above
Vero E6 [5] = assay: as above
Caco-2 [6] = assay: relative viability EC50 (midpoint between 100% and the lowest measured viability); higher = less toxic
Calu-3 [7] = assay: as above
HepG2 [8] = assay: as above
U2OS [9] = assay: as above
Vero E6 [10] = assay: as above
Caco-2 [11] = assay: drug sensitivity score (DSS) for viability; higher = more toxic; extreme values may be limits of the assay
Calu-3 [12] = assay: as above
HepG2 [13] = assay: as above
U2OS [14] = assay: as above
Vero E6 [15] = assay: as above

| Structure (SMILES) | cell viability (Caco-2 [1]; 1 nM) [%] | cell viability (Caco-2 [1]; 10 nM) [%] | cell viability (Caco-2 [1]; 100 nM) [%] | cell viability (Caco-2 [1]; 1000 nM) [%] | cell viability (Caco-2 [1]; 10000 nM) [%] | cell viability (Calu-3 [2]; 1 nM) [%] | cell viability (Calu-3 [2]; 10 nM) [%] | cell viability (Calu-3 [2]; 100 nM) [%] | cell viability (Calu-3 [2]; 1000 nM) [%] | cell viability (Calu-3 [2]; 10000 nM) [%] | cell viability (HepG2 [3]; 1 nM) [%] | cell viability (HepG2 [3]; 10 nM) [%] | cell viability (HepG2 [3]; 100 nM) [%] | cell viability (HepG2 [3]; 1000 nM) [%] | cell viability (HepG2 [3]; 10000 nM) [%] | cell viability (U2OS [4]; 1 nM) [%] | cell viability (U2OS [4]; 10 nM) [%] | cell viability (U2OS [4]; 100 nM) [%] | cell viability (U2OS [4]; 1000 nM) [%] | cell viability (U2OS [4]; 10000 nM) [%] | cell viability (Vero E6 [5]; 1 nM) [%] | cell viability (Vero E6 [5]; 10 nM) [%] | cell viability (Vero E6 [5]; 100 nM) [%] | cell viability (Vero E6 [5]; 1000 nM) [%] | cell viability (Vero E6 [5]; 10000 nM) [%] | relative viability EC50 (Caco-2 [6]) [µM] | relative viability EC50 (Calu-3 [7]) [µM] | relative viability EC50 (HepG2 [8]) [µM] | relative viability EC50 (U2OS [9]) [µM] | relative viability EC50 (Vero E6 [10]) [µM] | drug sensitivity score (Caco-2 [11]) | drug sensitivity score (Calu-3 [12]) | drug sensitivity score (HepG2 [13]) | drug sensitivity score (U2OS [14]) | drug sensitivity score (Vero E6 [15]) |
| --- | --- | --- | --- | --- | --- | --- | --- | --- | --- | --- | --- | --- | --- | --- | --- | --- | --- | --- | --- | --- | --- | --- | --- | --- | --- | --- | --- | --- | --- | --- | --- | --- | --- | --- | --- |
| O=C(O)CCCc1c[nH]c2ccccc12 [3-indolebutyric-acid] | 99.4 | 88.5 | 89.6 | 92.5 | 91.7 | 99.6 | 100 | 97.7 | 100 | 99.3 | 98.3 | 99.4 | 92.8 | 87.9 | 101 | 102 | 102 | 101 | 95 | 99.9 | 102 | 101 | 101 | 97.2 | 94.2 | > 10 | > 10 | > 10 | > 10 | > 10 | 1.2 | 0 | 0 | 0 | 0 |
| CC(=O)N1CC[N+](C)(C)CC1 [4-acetyl-1,1-dimethylpiperazinium] | 100 | 100 | 98.7 | 98.2 | 97.9 | 102 | 101 | 97 | 102 | 88.6 | 93.6 | 109 | 111 | 97.9 | 91.2 | 101 | 100 | 97.5 | 102 | 95 | 100 | 111 | 106 | 96.8 | 101 | > 10 | > 10 | > 10 | > 10 | > 10 | 0 | 0 | 0 | 0 | 0 |
| CCCc1ccc(C(=O)O)cc1 [4-propylbenzoic-acid] | 96.6 | 96.4 | 105 | 89.7 | 106 | 106 | 106 | 101 | 96.4 | 97.2 | 106 | 106 | 93.7 | 104 | 98.3 | 98.5 | 94.9 | 99.8 | 98.9 | 102 | 93.2 | 97.4 | 91.9 | 92.2 | 103 | > 10 | > 10 | > 10 | > 10 | > 10 | 0 | 0 | 0 | 0 | 0 |
